Experimental data taken from patent publication US20060134008A1, “Compositions and methods for pulmonary conditions” (priority 2004, published 2006).

Tests used:
[1] = in average [70-kg] adult; cited from earlier work
[2] = tested on: guinea pigs immunized against ovalbumin
guinea pigs [3] = assay: Methacholine-induced bronchoconstriction (PenH), methacholine 20-30 minutes after isoflurane anesthesia and airway instillation; conditions: for block of methacholine and lidocaine induced bronchoconstriction (PenH): instilled with lidocaine, methacholine within 20-30 minutes of terminating anesthesia, FIG. 4; for PenH after methacholine by nebulization: methacholine 20-30 minutes following treatment, 200-300 μL instilled
Procedure: Guinea pigs were anesthetized with isoflurane and one of the following treatments instilled into the airway using a Penn Century device designed for liquid instillation: a) saline; b) lidocaine; c) IpBr or d) lidocaine and IpBr. The volume of liquid instilled was between 200-300 μL for each treatment group. Between 20 and 30 minutes following treatment all animals received methacholine by nebulization.

guinea pigs [4] = assay: Methacholine-induced bronchoconstriction (PenH), methacholine approximately 10-15 minutes after isoflurane anesthesia and treatment; conditions: FIG. 5
Procedure: A second study was conducted to evaluate the ability of IpBr and epinephrine to reduce lidocaine/methacholine induced bronchoconstriction earlier relative to the termination of isoflurane. […] Guinea pigs were anesthetized with isoflurane and treated with: a) saline; b) lidocaine; c) lidocaine plus epinephrine; or d) lidocaine plus IpBr. Approximately 10-15 minutes later each guinea pig was exposed to methacholine by nebulization.

[5] = given with lidocaine, methacholine approximately 10-15 minutes later

| Structure (SMILES) | Maximum one-time dose (volume) [1] | block of methacholine and lidocaine induced bronchoconstriction (PenH) (guinea pigs [3]) | PenH after methacholine by nebulization (guinea pigs [3]; FIG. 3) | effect on PenH (in words) (guinea pigs [4]; [5]) | further results |
| --- | --- | --- | --- | --- | --- |
| CCCCN1CCCCC1C(=O)Nc1c(C)cccc1C (stereo not shown) [Bupivacaine] | (50 mL in average [70-kg] adult) |  |  |  |  |
| CC(C)[N+]1(C)[C@@H]2CC[C@H]1CC(OC(=O)C(CO)c1ccccc1)C2.[Br-] (stereo partly shown) [IpBr, ipratropium bromide] |  | blocks methacholine-induced bronchoconstriction out to 30 minutes of treatment | effective in blocking methacholine induced bronchoconstriction | greatly reduce PenH back to baseline levels | effect of concomitant administration on lidocaine-induced increase in PenH ([2]; co-administered with lidocaine, FIG. 2, PenH similar to saline only): blocked the effect of lidocaine on PenH; reduction of PenH relative to animals receiving only lidocaine (guinea pigs [4]; [5]): approximately 90% |
| CCN(CC)CC(=O)Nc1c(C)cccc1C [Lidocaine, lidocaine] | (30 mL in average [70-kg] adult) | no differences in PenH | increase PenH relative to guinea pigs receiving only saline |  | magnitude of the lidocaine-induced PenH increase ([2]; 1.25 or 2.5 mg instilled, FIG. 1): dose-dependent; effect on the bronchoconstrictive action of methacholine (guinea pigs [3]; 15 and 30 minutes following termination of isoflurane anesthesia): enhanced the bronchoconstrictive action of methacholine; PenH relative to baseline (guinea pigs [4]; methacholine approximately 10-15 minutes after treatment): increase in PenH over baseline |
| Cc1cccc(C)c1NC(=O)C1CCCCN1C (stereo not shown) [Mepivacaine] | (30 mL in average [70-kg] adult) |  |  |  |  |
| CNC[C@H](O)c1ccc(O)c(O)c1 [epinephrine] |  | but not epinephrine, blocks methacholine-induced bronchoconstriction |  | reduced PenH to levels similar to those observed in saline treated animals |  |
| FC(F)OC(Cl)C(F)(F)F (stereo not shown) [isoflurane] |  |  |  |  | time for which the bronchoconstrictive effects of methacholine are reduced (guinea pigs [3]; inhaled anesthetic, FIG. 3): 20 to 30 min |
